We go through eleven compounds from patent US5486525A, “Platelet activating factor antagonists: imidazopyridine indoles” (priority 1994, dated 1996).

In the first experiment the target is T1, PAF receptor (Oryctolagus cuniculus, UniProt G1TEI7).
T1 construct: platelet membranes were prepared by centrifugation and washing; tissue Pel-Freez (Rogers, AR); host or cells: rabbit blood platelets (membranes prepared from citrated whole rabbit blood)
T1 sequence (G1TEI7 1-342): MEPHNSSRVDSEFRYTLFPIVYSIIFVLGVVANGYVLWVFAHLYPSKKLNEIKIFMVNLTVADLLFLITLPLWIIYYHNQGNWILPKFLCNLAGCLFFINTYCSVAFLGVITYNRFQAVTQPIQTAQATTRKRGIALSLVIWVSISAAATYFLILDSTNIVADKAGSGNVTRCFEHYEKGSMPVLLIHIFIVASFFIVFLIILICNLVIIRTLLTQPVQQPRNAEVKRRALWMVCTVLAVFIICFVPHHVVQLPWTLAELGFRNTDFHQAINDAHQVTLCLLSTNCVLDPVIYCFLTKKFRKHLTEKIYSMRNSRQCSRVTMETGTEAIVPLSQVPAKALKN
Kind of experiment: PAF receptor binding assay: inhibition of specific [^3 H]C18 -PAF binding to rabbit platelet membranes.
Conditions: not given
By inhibition is commonly meant the drop in the measured response relative to a control, in per cent. Read a high inhibition as strong suppression. With `Cc1nc2ccncc2n1Cc1cccc(C(=O)c2cn(C(=O)N(C)C)c3ccccc23)c1` [Example 20, 1-N,N-Dimethylcarbamoyl-3-{3-[(3H-2-methylimidazo[4.5-c]pyrid-3-yl)methyl]benzoyl}indole], 100 µM produced 26% inhibition.

As usually defined, the Ki is the dissociation constant of the complex between target and ligand, obtained from inhibition or displacement. `CCc1cccc2c1c(C(=O)c1ccc(Cn3c(C)nc4cnccc43)cc1)cn2C(=O)N(C)C` [Example 143] yielded a Ki of 0.9 nM.

`Cc1nc2cccnc2n1Cc1ccc(C(=O)c2cn(C(=O)N(C)C)c3ccccc23)cc1` [Example 27, 1-N,N-Dimethylcarbamoyl-3-{4-[(3H-2-methylimidazo[4.5-b]pyrid-3-yl)methyl]benzoyl}indole] displayed a Ki of 160 nM.

`COC(=O)c1cccc2c1c(C(=O)c1ccc(Cn3c(C)nc4cc(Cl)c(Cl)cc43)cc1)cn2C(=O)N(C)C` [Example 167, 1-N,N-Dimethylcarbamoyl-4-methoxycarbonyl-3-{4-[(1H-2-methyl-5,6-dichlorobenzimidazolyl)methyl]benzoyl}indole] yielded an inhibition constant Ki of 450 nM.

In turn, `COC(=O)c1cccc2c1c(C(=O)c1ccc(C(C)n3c(C)nc4cnccc43)cc1)cn2C(=O)N(C)C` (centres unmarked) [Example 156, 1-N,N-Dimethylcarbamoyl-4-methoxycarbonyl-3-{4-[1-(1H-2-methylimidazo[4.5-c]pyrid-1-yl)eth-1-yl]benzoyl}indole] yielded an inhibitory constant (Ki) of 19 nM.

`Cc1nc2cnccc2n1Cc1cccc(C(=O)c2cn(C(=O)N(C)C)c3cc(-c4ccc(F)cc4)ccc23)c1` [Example 12, 1-N,N-Dimethylcarbamoyl-6-(4-fluorophenyl)-3-{3-[(1H-2-methylimidazo[4.5-c]pyrid-1-yl)methyl]benzoyl}indole] returned an inhibitory constant (Ki) of 140 nM.

As for `Cc1nc2cnccc2n1Cc1ccc(C(=O)c2cn(C(=O)N(C)C)c3ccccc23)cc1` [Example 14, 1-N,N-Dimethylcarbamoyl-3-{4-[(1H-2-methylimidazo[4.5-c]pyrid-1-yl)methyl]benzoyl}indole], the affinity corresponds to a Ki of 5 nM.

`CC(C)c1nc2cnccc2n1Cc1ccc(C(=O)c2cn(C(=O)N(C)C)c3ccccc23)cc1` [Example 31] yielded a Ki of 44 nM.

Take `CCc1nc2cnccc2n1Cc1ccc(C(=O)c2cn(C(=O)N(C)C)c3ccccc23)cc1` [Example 33]: the inhibition constant (Ki) amounted to 29 nM.

The experiment is the same for the next values; noted with them: Table 1; rabbit platelet membranes, 0.6 nM [^3 H]C18 -PAF, 60 minutes at room temperature; Ki by Cheng and Prusoff; read-out: Ki.
`Cc1nc2cnccc2n1CCCN(C)CC(=O)c1cn(C(=O)N(C)C)c2cc(-c3ccc(F)cc3)ccc12` [Example 95, 6-(4-Fluorophenyl)-3-{N-[3-(1H-2-methylimidazo[4.5-c]pyrid-1-yl)propyl]sarcosyl}indole-1-carboxylic acid dimethyl amide]: the Ki was 130 nM.

`COC(=O)c1ccc(C(=O)OC)c2c(C(=O)c3ccc(Cn4c(C)nc5cnccc54)cc3)c[nH]c12` [Example 90, 4,7-Dimethoxycarbonyl-3-{4-[(1H-2-methylimidazo[4,5-c]pyrid-1-yl)methyl]benzoyl}indole]: the Ki stood at 2.9 nM.
